Experimental findings from patent US11926643B2, “Heterocyclic GLP-1 agonists” (Gasherbrum Bio, Inc., priority 2020, dated 2024) are described below.

SMILES strings stand for the structures. Where two headings read alike, the source gives them in different places.

This assay has as its target GLP-1 Receptor (Homo sapiens, UniProt P43220). Briefly: GLP-1R agonist cAMP stimulation assay (Method 3, HEK293/GLP1R/CRE-LUC, HDB). The assay is classed as cell-based. As to conditions: HDB HEK293/CRE-Luc cell line. The method, then:
The methodology for detection of cAMP using EFC requires incubation with 20 μL of cAMP XS+ED/CL lysis cocktail for one hour followed by incubation with 20 μL cAMP XS+EA reagent for three hours at room temperature. Microplates are read following signal generation with a PerkinElmer Envision instrument utilizing chemiluminescent signal detection. Compound activity is analyzed using CBIS data analysis suite (ChemInnovation, CA). Percentage activity is calculated using the following formula: % Activity=100%×(mean RLU of test sample−mean RLU of vehicle control)/(mean RLU of MAX control−mean RLU of vehicle control)) Method 3: Activation of GLP-1 receptor is known to stimulate cyclic AMP (cAMP) production in cells which indicates primary coupling to the Gαs subunit of the G protein heterotrimeric complex.
To optimize functional activity directed toward Gαs coupling, a HEK293/CRE-Luc cell line developed by HDB stably expressing the GLP-1 Receptor was used. 200× concentration of compound working solutions were prepared (Agilent Technologies Bravo) with 1/2 log serial dilution in 384-well Echo LDV plate (Labcyte, Cat #LP-0200). 50 nL/well 200× concentration of compound working solutions were moved to 384-well white low volume plate (Greiner, Cat #784075) using Labcyte ECHO550. 1×10^5 cells/mL HEK293/GLP1R/CRE-LUC(HD Biosciences) cell suspensions prepared with assay buffer [DPBS containing 0.5 mM IBMX(Sigma, Cat #15879) and 0.1% BSA(GENVIEW, Cat #FA016-100 g)], 10 μL cell suspensions were added to each well of previous generated assay plate which already contains 50 nL compound at 200× concentration using ThermoFisher Multidrop Combi (1000 cells/well). Seal the plate and incubate at 37° C. with 5% CO2 for 30 min.
After incubation the cAMP assay signal was generated using cAMP dynamic 2 Kit (Cisbio). 5 μL cAMP-d2 working solution was added to each well, followed with 5 μL Anti-cAMP antibody-cryptate working solution added to each well using ThermoFisher Multidrop Combi. Incubate at room temperature for 1 hour protected from light. […] (Method 3)

Setting [1] is: read-out: GLP1R cAMP Stimulation DR: EC50 (nM) [Species: Human, Assay Cell Line: HDB].
The mark [2] stands for this setting: read-out: GLP1R cAMP Stimulation DR: pEC50 (M) [Species: Human, Assay Cell Line: HDB] (converted).

GLP-1 Receptor, sequence (P43220 24-463): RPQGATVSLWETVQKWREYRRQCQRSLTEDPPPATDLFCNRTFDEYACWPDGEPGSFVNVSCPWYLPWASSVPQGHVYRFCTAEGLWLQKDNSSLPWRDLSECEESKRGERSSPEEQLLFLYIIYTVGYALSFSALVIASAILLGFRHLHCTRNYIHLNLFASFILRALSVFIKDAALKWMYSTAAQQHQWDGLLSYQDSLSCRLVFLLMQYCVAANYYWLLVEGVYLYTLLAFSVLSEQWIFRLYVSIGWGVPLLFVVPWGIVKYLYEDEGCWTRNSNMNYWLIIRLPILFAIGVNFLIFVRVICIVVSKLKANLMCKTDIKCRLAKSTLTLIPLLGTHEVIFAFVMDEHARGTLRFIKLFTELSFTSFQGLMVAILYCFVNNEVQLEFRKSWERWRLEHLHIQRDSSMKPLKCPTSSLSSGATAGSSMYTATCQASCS

For `CCP(=O)(CC)c1ccc(-n2ccn(-c3c4c(nn3-c3cc(C)c(F)c(C)c3)CCN(C(=O)c3cc5cc([C@H]6CCOC(C)(C)C6)ccc5n3[C@@]3(c5noc(=O)[nH]5)C[C@@H]3C)[C@H]4C)c2=O)cc1` [Compound 130b, 3-((1S,2S)-1-(2-((S)-3-(3-(4-(diethylphosphoryl)phenyl)-2-oxo-2,3-dihydro-1H-imidazol-1-yl)-2-(4-fluoro-3,5-dimethylphenyl)-4-methyl-4,5,6,7-tetrahydro-2H-pyrazolo[4,3-c]pyridine-5-carbonyl)-5-((S)-2,2-dimethyltetrahydro-2H-pyran-4-yl)-1H-indol-1-yl)-2-methylcyclopropyl)-1,2,4-oxadiazol-5 (4H)-one], the EC50 by setting is: under setting [1], < 0.1 nM; under setting [2], ≤ 0.1 nM.
The corresponding values for `CCP(=O)(CC)c1ccc(-n2ccn(-c3c4c(nn3-c3cc(C)c(F)c(C)c3)CCN(C(=O)c3cc5cc(C6CCOCC6)ccc5n3[C@@]3(c5noc(=O)[nH]5)C[C@@H]3C)[C@H]4C)c2=O)cc1C(F)F` [Compound 142a, 3-((1S,2S)-1-(2-((S)-3-(3-(4-(diethylphosphoryl)-3-(difluoromethyl)phenyl)-2-oxo-2,3-dihydro-1H-imidazol-1-yl)-2-(4-fluoro-3,5-dimethylphenyl)-4-methyl-4,5,6,7-tetrahydro-2H-pyrazolo[4,3-c]pyridine-5-carbonyl)-5-(tetrahydro-2H-pyran-4-yl)-1H-indol-1-yl)-2-methylcyclopropyl)-1,2,4-oxadiazol-5 (4H)-one] are < 0.1 nM and ≤ 0.1 nM.
Take `CNc1cc(-n2ccn(-c3c4c(nn3-c3cc(C)c(F)c(C)c3)CCN(C(=O)c3cc5cc(C6CCOCC6)ccc5n3[C@@]3(c5noc(=O)[nH]5)C[C@@H]3C)[C@H]4C)c2=O)ccc1P(C)(=O)C(C)(C)C` (stereo partly drawn) [Compound 131a, 3-((1S,2S)-1-(2-((4S)-3-(3-(4-(tert-butyl(methyl)phosphoryl)-3-(methylamino)phenyl)-2-oxo-2,3-dihydro-1H-imidazol-1-yl)-2-(4-fluoro-3,5-dimethylphenyl)-4-methyl-4,5,6,7-tetrahydro-2H-pyrazolo[4,3-c]pyridine-5-carbonyl)-5-(tetrahydro-2H-pyran-4-yl)-1H-indol-1-yl)-2-methylcyclopropyl)-1,2,4-oxadiazol-5 (4H)-one]: the EC50 under setting [1] fell in the range of 0.1 to 0.2 nM and the EC50 under setting [2] is 0.1 to 1 nM.
The matching figures for `CNc1cc(-n2ccn(-c3c4c(nn3-c3cc(C)c(F)c(C)c3)CCN(C(=O)c3cc5cc(C6CCOCC6)ccc5n3C3(c5noc(=O)[nH]5)CC3)[C@H]4C)c2=O)ccc1P(C)(=O)C(C)(C)C` (stereo partly drawn) [Compound 149a, 3-(1-(2-((4S)-3-(3-(4-(tert-butyl(methyl)phosphoryl)-3-(methylamino)phenyl)-2-oxo-2,3-dihydro-1H-imidazol-1-yl)-2-(4-fluoro-3,5-dimethylphenyl)-4-methyl-4,5,6,7-tetrahydro-2H-pyrazolo[4,3-c]pyridine-5-carbonyl)-5-(tetrahydro-2H-pyran-4-yl)-1H-indol-1-yl)cyclopropyl)-1,2,4-oxadiazol-5 (4H)-one]: 0.1 to 0.2 nM and 0.1 to 1 nM.
`Cc1cc(-n2nc3c(c2-n2ccn(-c4ccc(P(C)(C)=O)cc4)c2=O)[C@H](C)N(C(=O)c2cc4cc(C5CCOC(C)(C)C5)ccc4n2[C@@]2(c4noc(=O)[nH]4)C[C@@H]2C)CC3)cc(C)c1F` (stereo partly drawn) [Compound 102a, 3-((1S,2S)-1-(2-((S)-3-(3-(4-(dimethylphosphoryl)phenyl)-2-oxo-2,3-dihydro-1H-imidazol-1-yl)-2-(4-fluoro-3,5-dimethylphenyl)-4-methyl-4,5,6,7-tetrahydro-2H-pyrazolo[4,3-c]pyridine-5-carbonyl)-5-(2,2-dimethyltetrahydro-2H-pyran-4-yl)-1H-indol-1-yl)-2-methylcyclopropyl)-1,2,4-oxadiazol-5 (4H)-one]: the EC50 reads like this: under setting [1], < 0.1 nM; under setting [2], ≤ 0.1 nM.
